Data set [1] can be described thus: Pharmacokinetics assay in rats, intragastric. The settings on record: both sexes, rat, plasma, po, SD rats, 25 mg/kg, read-out: Area Under Curve AUC. It is filed as in vivo. The method, then: The pharmacokinetic behavior of the compounds of the present invention was studied and evaluated in rats. 8 healthy adult SD rats, male and female in half, were purchased from SINO-BRITSH SIPPR/BK LAB. ANIMAL LTD., CO, License number: SCXK (Shanghai) 2003-0002 The right amount of compounds were weighted and grinded with 0.5% Sodium Carboxymethyl cellulose uniformly, suspended them with 1% tween 80 to 2.5 mg/mL of suspension before use. […] 8 Healthy adult SD rats, male and female in half, were divided into 2 groups. After an overnight fast, the rats were administered intragastrically at a dose of 25.0 mg/kg. […] The plasma samples were stored at −20° C. until analysis. The rats were fed 2 hours after administration. 50 μL of rat plasmas taken at various time points after administration were mixed with 50 μL of standard series solution to obtain plasma concentration of 50.0, 100, 200, 500, 1000, 2000, 5000 ng/mL. 150 μL, methanol was added and then the mixture was mixed for 3 minute using a vortexer and centrifuged for 10 minutes at 13,500 rpm. 10 μL of the supernatant was analyzed by LC-MS/MS. The main pharmacokinetic parameters were calculated by DAS 2.0 software.

Data set [2] deals with xenografts of Calu-3 human lung cancer. Put plainly: Therapeutic effects against xenografts of Calu-3 human lung cancer in nude mice. It counts as in vivo, BALB/cA-nude mice. The method, then: BALB/cA-nude mice, 6 to 7 weeks old, ♀, purchased from Slaccas Experimental Animal LTD., CO.
Nude mice were hypodermic inoculated Calu-3 human lung cancer cell. After tumors grew to 150-250 mm^3, mice were randomly divided into teams (d0).
The volume of tumors and the weigh of the mice were measured and recorded for 2-3 times per week.
The calculation formula of the volume of tumor (V) is: V=½×a×b^2, a: length of tumor, b: width of tumor.
(In general: In xenograft studies the graft and the host belong to different species.)

The mark [3] stands for this setting: high dose (200 mg/kg), nude mice, Calu-3 xenograft.

For `CCOc1cc2ncc(C#N)c(Nc3ccc(OCc4ccccn4)c(Cl)c3)c2cc1NC(=O)/C=C/[C@@H]1CCCN1C` [Example 1, (E)-N-[4-[[3-Chloro-4-(2-pyridylmethoxy)phenyl]amino]-3-cyano-7-ethoxy-6-quinolyl]-3-[(2S)-1-methylpyrrolidin-2-yl]prop-2-enamide], in data set [1], the AUC was found to be 52.6 ± 39 µg·h/mL. In data set [2] (setting [3]), the “completely degraded fraction of the tumor” value is on record as “⅙” and the “reduced fraction of the tumor volume” value was “⅙”. Besides, the “growth of Calu-3 human lung cancer” value in data set [2] (nude mice xenograft) is recorded as “markedly inhibited”.
As to `CCOc1cc2ncc(C#N)c(Nc3ccc(OCc4ccccn4)c(Cl)c3)c2cc1NC(=O)/C=C/[C@H]1CCCN1C` [Example 5, (E)-N-[4-[[3-Chloro-4-(2-pyridylmethoxy)phenyl]amino]-3-cyano-7-ethoxy-6-quinolyl]-3-[(2R)-1-methylpyrrolidin-2-yl]prop-2-enamide], the AUC in data set [1] is 52.8 ± 23.6 µg·h/mL.

The AUC is concentration integrated over time.

For the origin of these results see patent US9358227B2, “Pharmaceutical uses of 6-amino quinazoline or 3-cyano quinoline derivatives” (Jiangsu Hengrui Medicine Co., Ltd., priority 2009, dated 2016).
